Test results from patent US10787447B2, “Pharmaceutical compounds” (Heptares Therapeutics Limited, priority 2018, dated 2020).
Like-named read-outs stand apart in the source and are kept apart here.

How the values were obtained:
Type in all cases: cell-based
[1] = target: T1, human muscarinic M1 receptor (Homo sapiens, UniProt P11229); experiment: Alphascreen Surefire phospho-ERK1/2 functional assay, M1; conditions: for % Emax cf. ACh, M1 / Emax: Emax relative to ACh; for EC50: phospho-ERK1/2; for Emax: CHO, read-out: % Emax cf. ACh, M1, CHO cells stably expressing human M1
T1 sequence (P11229 1-460): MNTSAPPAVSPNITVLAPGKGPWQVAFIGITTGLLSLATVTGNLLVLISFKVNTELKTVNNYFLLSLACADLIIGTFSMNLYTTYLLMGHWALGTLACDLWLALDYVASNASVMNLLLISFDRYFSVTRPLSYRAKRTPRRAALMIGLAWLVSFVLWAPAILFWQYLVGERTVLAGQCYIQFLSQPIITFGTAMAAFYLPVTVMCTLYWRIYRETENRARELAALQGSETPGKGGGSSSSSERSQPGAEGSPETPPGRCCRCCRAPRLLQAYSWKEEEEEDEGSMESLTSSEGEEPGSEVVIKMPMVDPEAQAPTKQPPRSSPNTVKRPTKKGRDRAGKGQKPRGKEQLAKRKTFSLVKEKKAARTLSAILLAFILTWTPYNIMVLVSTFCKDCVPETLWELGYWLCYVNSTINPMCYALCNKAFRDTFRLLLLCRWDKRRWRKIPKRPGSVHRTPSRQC
Procedure: (§1) Functional assays were performed using the Alphascreen Surefire phospho-ERK1/2 assay (Crouch & Osmond, Comb. Chem. High Throughput Screen, 2008). ERK1/2 phosphorylation is a downstream consequence of both Gq/11 and Gi/o protein coupled receptor activation, making it highly suitable for the assessment of M1, M3 (Gq/11 coupled) and M2, M4 receptors (Gi/o coupled), rather than using different assay formats for different receptor subtypes. CHO cells stably expressing the human muscarinic M1, M2, M3 or M4 receptor were plated (25K/well) onto 96-well tissue culture plates in MEM-alpha+10% dialysed FBS. Once adhered, cells were serum-starved overnight. Agonist stimulation was performed by the addition of 5 μL agonist to the cells for 5 min (37° C.). Media was removed and 50 μL of lysis buffer added. After 15 min, a 4 μL sample was transferred to 384-well plate and 7 μL of detection mixture added.
For the vast majority of examples at least two diastereomers exist and these have been separated, unless otherwise stated, using the techniques of reversed phase HPLC, chiral HPLC or chiral SFC. Isomer assignment (Isomer 1, Isomer 2, etc.) is based on the retention time of the compound using the separation technique that was performed in the final purification step. By implication, this could be reversed phase HPLC, chiral HPLC or chiral SFC retention time, and this will vary from compound to compound.

[2] = target: T2, human muscarinic M4 receptor (Homo sapiens, UniProt P08173); experiment: Alphascreen Surefire phospho-ERK1/2 functional assay, M4; conditions: for % Emax cf. ACh, M4 / Emax: Emax relative to ACh; for EC50: phospho-ERK1/2; for Emax: CHO, read-out: % Emax cf. ACh, M4, CHO cells stably expressing human M4
T2 sequence (P08173 1-479): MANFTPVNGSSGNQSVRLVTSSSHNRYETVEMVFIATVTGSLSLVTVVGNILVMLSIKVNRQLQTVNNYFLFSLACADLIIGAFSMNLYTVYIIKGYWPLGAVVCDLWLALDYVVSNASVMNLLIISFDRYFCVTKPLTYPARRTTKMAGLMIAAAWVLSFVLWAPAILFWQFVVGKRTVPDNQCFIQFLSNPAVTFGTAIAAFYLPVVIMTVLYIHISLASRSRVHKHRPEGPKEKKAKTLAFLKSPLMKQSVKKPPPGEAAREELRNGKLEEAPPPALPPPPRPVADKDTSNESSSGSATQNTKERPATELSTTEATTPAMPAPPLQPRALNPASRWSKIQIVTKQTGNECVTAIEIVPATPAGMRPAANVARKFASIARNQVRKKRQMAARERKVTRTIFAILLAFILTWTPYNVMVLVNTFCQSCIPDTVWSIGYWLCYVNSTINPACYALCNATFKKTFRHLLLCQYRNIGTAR
Procedure: as §1, with “ERK1/2” for “Functional assays were performed using the Alphascreen Surefire phospho-ERK1/2 assay (Crouch & Osmond, Comb. Chem. High Throughput Screen, 2008). ERK1/2”
(§2) Isomer assignment (Isomer 1, Isomer 2, etc.) is based on the retention time of the compound using the separation technique that was performed in the final purification step. By implication, this could be reversed phase HPLC, chiral HPLC or chiral SFC retention time, and this will vary from compound to compound.

[3] = target: T3, human muscarinic M2 receptor (Homo sapiens, UniProt P08172); experiment: Alphascreen Surefire phospho-ERK1/2 functional assay, M2; conditions: for % Emax cf. ACh, M2: CHO cells stably expressing human M2, Emax relative to ACh; for EC50: pEC50 M2, CHO cells stably expressing human M2, phospho-ERK1/2
T3 sequence (P08172 1-466): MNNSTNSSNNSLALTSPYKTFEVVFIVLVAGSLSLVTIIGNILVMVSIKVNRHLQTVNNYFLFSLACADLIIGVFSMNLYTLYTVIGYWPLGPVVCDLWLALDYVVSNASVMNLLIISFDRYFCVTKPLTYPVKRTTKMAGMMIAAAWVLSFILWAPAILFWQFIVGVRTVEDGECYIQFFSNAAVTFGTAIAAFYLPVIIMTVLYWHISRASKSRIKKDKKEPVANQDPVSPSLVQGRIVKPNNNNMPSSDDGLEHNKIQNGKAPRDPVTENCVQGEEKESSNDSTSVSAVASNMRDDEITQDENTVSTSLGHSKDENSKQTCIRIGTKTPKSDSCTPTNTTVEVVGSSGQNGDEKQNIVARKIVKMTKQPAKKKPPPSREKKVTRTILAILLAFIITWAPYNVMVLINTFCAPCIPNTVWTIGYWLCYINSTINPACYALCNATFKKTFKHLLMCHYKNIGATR
Procedure: as §1, with “ERK1/2” for “Functional assays were performed using the Alphascreen Surefire phospho-ERK1/2 assay (Crouch & Osmond, Comb. Chem. High Throughput Screen, 2008). ERK1/2”
as §2

[4] = target: T4, human muscarinic M3 receptor (Homo sapiens, UniProt P20309); experiment: Alphascreen Surefire phospho-ERK1/2 functional assay, M3; conditions: for % Emax cf. ACh, M3: CHO cells stably expressing human M3, Emax relative to ACh; for EC50: pEC50 M3, CHO cells stably expressing human M3, phospho-ERK1/2
T4 construct: expressed in transfected cells
Procedure: as §1, with “ERK1/2” for “Functional assays were performed using the Alphascreen Surefire phospho-ERK1/2 assay (Crouch & Osmond, Comb. Chem. High Throughput Screen, 2008). ERK1/2”
as §2

[5] = pEC50 M1, CHO cells stably expressing human M1
[6] = pEC50 M4, CHO cells stably expressing human M4
[7] = CHO cells stably expressing human M4
[8] = CHO cells stably expressing human M1
[9] = CHO cells stably expressing human M4, read-out: pEC50 M4 (converted)
[10] = CHO cells stably expressing human M1, read-out: pEC50 M1 (converted)

T4 sequence (P20309 whole entry): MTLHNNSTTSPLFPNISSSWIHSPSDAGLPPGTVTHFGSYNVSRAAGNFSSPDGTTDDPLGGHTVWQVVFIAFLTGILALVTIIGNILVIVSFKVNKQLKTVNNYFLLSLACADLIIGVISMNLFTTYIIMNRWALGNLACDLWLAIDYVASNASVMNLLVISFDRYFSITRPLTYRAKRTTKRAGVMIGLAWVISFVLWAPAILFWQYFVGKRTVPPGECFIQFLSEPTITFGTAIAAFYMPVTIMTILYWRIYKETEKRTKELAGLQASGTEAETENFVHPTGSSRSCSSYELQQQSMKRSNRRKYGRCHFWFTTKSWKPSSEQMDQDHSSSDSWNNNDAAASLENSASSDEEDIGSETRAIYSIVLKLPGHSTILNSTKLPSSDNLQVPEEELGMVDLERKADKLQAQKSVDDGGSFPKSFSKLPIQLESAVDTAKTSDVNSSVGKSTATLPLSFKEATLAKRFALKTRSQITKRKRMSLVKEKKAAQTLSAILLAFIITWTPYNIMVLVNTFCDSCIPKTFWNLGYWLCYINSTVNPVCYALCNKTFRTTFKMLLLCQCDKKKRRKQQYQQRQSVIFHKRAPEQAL

Question: With `CCOC(=O)N1C2COCC1CC(N1CCC(N3CCCCCC3=O)CC1)C2` (single isomer, unassigned) [Example 6-7 Isomer 1, Ethyl 7-[4-(2-oxoazepan-1-yl)piperidin-1-yl]-3-oxa-9-azabicyclo[3.3.1]nonane-9-carboxylate] as the compound, how does the “% Emax cf. ACh, M1” value ([1]; CHO cells stably expressing human M1, listed as 6-7 Isomer 1) read?
Answer: 111%

Question: What about the EC50 [1, 5] of the same compound?
Answer: 646 nM

Question: What about the “% Emax cf. ACh, M4” value ([2]; CHO cells stably expressing human M4, listed as 6-7 Isomer 1) of the same compound?
Answer: 105%

Question: And the EC50 [2, 6]?
Answer: 75.9 nM

Question: And the “% Emax cf. ACh, M2” value ([3]; listed as 6-7 Isomer 1)?
Answer: 87%

Question: What about the EC50 [3] of the same compound?
Answer: 1020 nM

Question: And the “% Emax cf. ACh, M3” value ([4]; listed as 6-7 Isomer 1)?
Answer: 28%

Question: What about the EC50 [4] of the same compound?
Answer: > 20000 nM

Question: How did the “% Emax cf. ACh, M1” value ([1]; CHO cells stably expressing human M1, listed as 1-3 Isomer 2) turn out when `CCOC(=O)N1C2COCC1CC(N1CCC(n3cc(C)cn3)CC1)C2` (single isomer, unassigned) [Example 1-3 Isomer 2, Ethyl 7-[4-(4-methyl-1H-pyrazol-1-yl)piperidin-1-yl]-3-oxa-9-azabicyclo[3.3.1]nonane-9-carboxylate] was run?
Answer: 45%

Question: And the EC50 [1, 5]?
Answer: 316 nM

Question: What about the “% Emax cf. ACh, M4” value [2, 7] of the same compound?
Answer: 81%

Question: And the EC50 [2, 6]?
Answer: 112 nM

Question: What about the “% Emax cf. ACh, M2” value ([3]; listed as 1-3 Isomer 2) of the same compound?
Answer: 11%

Question: What about the EC50 [3] of the same compound?
Answer: > 20000 nM

Question: What about the “% Emax cf. ACh, M3” value ([4]; listed as 1-3 Isomer 2) of the same compound?
Answer: 5%

Question: What about the EC50 [4] of the same compound?
Answer: > 20000 nM

Question: `CC(=O)OCC[N+](C)(C)C` [ACh] was tested. Which “% Emax cf. ACh, M4” value [2, 7] did it give?
Answer: 110%

Question: And the “% Emax cf. ACh, M3” value [4]?
Answer: 115%

Question: Which “% Emax cf. ACh, M1” value ([1]; CHO cells stably expressing human M1, listed as 6-7 Isomer 2) does the source give for `CCOC(=O)N1C2COCC1CC(N1CCC(N3CCCCCC3=O)CC1)C2` (single isomer, unassigned) [Example 6-7 Isomer 2, Ethyl 7-[4-(2-oxoazepan-1-yl)piperidin-1-yl]-3-oxa-9-azabicyclo[3.3.1]nonane-9-carboxylate] here?
Answer: 41%

Question: What about the EC50 [1, 5] of the same compound?
Answer: 2190 nM

Question: And the “% Emax cf. ACh, M4” value ([2]; CHO cells stably expressing human M4, listed as 6-7 Isomer 2)?
Answer: 52%

Question: What about the EC50 [2, 6] of the same compound?
Answer: 174 nM

Question: What about the “% Emax cf. ACh, M2” value ([3]; listed as 6-7 Isomer 2) of the same compound?
Answer: 5%

Question: And the EC50 [3]?
Answer: > 20000 nM

Question: What about the “% Emax cf. ACh, M3” value ([4]; listed as 6-7 Isomer 2) of the same compound?
Answer: 2%

Question: How did the “% Emax cf. ACh, M1” value [1, 8] turn out when `CCOC(=O)N1C2COCC1CC(N1CCC(N(Cc3ccccc3)C(C)=O)CC1)C2` (single isomer, unassigned) [Example 6-5 Isomer 2, Ethyl 7-{4-[acetyl(benzyl)amino]piperidin-1-yl}-3-oxa-9-azabicyclo[3.3.1]nonane-9-carboxylate] was run?
Answer: 91%

Question: What about the EC50 [1, 5] of the same compound?
Answer: 15.8 nM

Question: What about the “% Emax cf. ACh, M4” value ([2]; CHO cells stably expressing human M4, listed as 6-5 Isomer 2) of the same compound?
Answer: 73%

Question: And the EC50 [2, 6]?
Answer: 145 nM

Question: And the “% Emax cf. ACh, M2” value ([3]; listed as 6-5 Isomer 2)?
Answer: 68%

Question: And the EC50 [3]?
Answer: 2340 nM

Question: And the “% Emax cf. ACh, M3” value ([4]; listed as 6-5 Isomer 2)?
Answer: 83%

Question: What about the EC50 [4] of the same compound?
Answer: 2820 nM

Question: `CCOC(=O)N1C2COCC1CC(N1CCC(N(CC3(C)CCC3)C(C)=O)CC1)C2` (single isomer, unassigned) [Example 6-4 Isomer 1] was tested. Which “% Emax cf. ACh, M1” value ([1]; CHO cells stably expressing human M1, listed as 6-4 Isomer 1) did it give?
Answer: 103%

Question: What about the EC50 [1, 5] of the same compound?
Answer: 14.5 nM

Question: What about the “% Emax cf. ACh, M4” value ([2]; CHO cells stably expressing human M4, listed as 6-4 Isomer 1) of the same compound?
Answer: 80%

Question: What about the EC50 [2, 6] of the same compound?
Answer: 42.7 nM

Question: What about the “% Emax cf. ACh, M2” value ([3]; listed as 6-4 Isomer 1) of the same compound?
Answer: 33%

Question: What about the EC50 [3] of the same compound?
Answer: 363 nM

Question: How did the “% Emax cf. ACh, M1” value ([1]; CHO cells stably expressing human M1, listed as 5-5 Isomer 2) turn out when `CCOC(=O)N1C2COCC1CC(N1CCC3(CC1)C(=O)Nc1ccccc13)C2` (single isomer, unassigned) [Example 5-5 Isomer 2, Ethyl 7-(2-oxo-1,2-dihydro-1′H-spiro[indole-3,4′-piperidin]-1′yl)-3-oxa-9-azabicyclo[3.3.1]nonane-9-carboxylate] was run?
Answer: 108%

Question: What about the EC50 [1, 5] of the same compound?
Answer: 53.7 nM

Question: And the “% Emax cf. ACh, M4” value [2, 7]?
Answer: 108%

Question: And the EC50 [2, 6]?
Answer: 8.51 nM

Question: What about the “% Emax cf. ACh, M2” value ([3]; listed as 5-5 Isomer 2) of the same compound?
Answer: 67%

Question: What about the EC50 [3] of the same compound?
Answer: 75.9 nM

Question: Which results are given for `CCOC(=O)N1C2COCC1CC(N1CCC(C#N)(c3ccccn3)CC1)C2` (single isomer, unassigned) [Example 3-1 Isomer 2, Ethyl 7-[4-cyano-4-(pyridin-2-yl)piperidin-1-yl]-3-oxa-9-azabicyclo[3.3.1]nonane-9-carboxylate]?
Answer: % Emax cf. ACh, M1 [1, 8]: 79%; % Emax cf. ACh, M4 [2, 7]: 78%; EC50 [2, 9]: 309 nM

Question: How did the EC50 [1, 10] turn out when `CCOC(=O)N1C2COCC1CC(N1CCC3(CC1)CNC(=O)O3)C2` (single isomer, unassigned) [Example 5-3 Isomer 1, Ethyl 7-(2-oxo-1-oxa-3,8-diazaspiro[4.5]dec-8-yl)-3-oxa-9-azabicyclo[3.3.1]nonane-9-carboxylate] was run?
Answer: 1450 nM

Question: What about the Emax [1] of the same compound?
Answer: 75%

Question: And the EC50 [2, 9]?
Answer: 832 nM

Question: And the Emax [2]?
Answer: 33%

Question: `CCOC(=O)N1C2COCC1CC(N1CCC(c3cccc(OC)n3)CC1)C2` (single isomer, unassigned) [Example 2-1 Isomer 1, Ethyl 7-[4-(6-methoxypyridin-2-yl)piperidin-1-yl]-3-oxa-9-azabicyclo[3.3.1]nonane-9-carboxylate] was tested. Which EC50 [1, 10] did it give?
Answer: 251 nM

Question: What about the Emax [1] of the same compound?
Answer: 44%

Question: And the EC50 [2, 9]?
Answer: > 20000 nM

Question: And the Emax [2]?
Answer: 17%
